Reference: patent US20100093076A1, “SOLUBLE IL-27 RECEPTOR” (priority 2006, published 2010)

Tests used:
[1] = tested on: mouse spleens; assay: IL-27 EC90 determination, phosphorylated STAT3 in mouse spleens; type: cell-based; conditions: read-out: EC90 concentration
From the text: (§1) Whole mouse spleens were harvested from C57 B1/6 mice and washed two times with 1×PBS before being plated out at 2×10^5 cells/well in assay media (RPMI 1640 plus 10% fetal bovine serum) in 96-well, round-bottom tissue culture plates. Total human PBMC (peripheral blood mononuclear cells) were thawed from a frozen vial collected from a leukapherisis donation and washed two times with 1×PBS before being plated out at 10^6 cells/well in assay media in 96-well, round-bottom tissue culture plates. […] Following pre-incubation, treatments were added to the plates containing the cells and incubated together at 37° C. for 15 minutes.
(§2) Following incubation, cells were washed with ice-cold wash buffer (BIO-PLEX Cell Lysis Kit, BIO-RAD Laboratories, Hercules, Calif.) and put on ice to stop the reaction according to manufacturer's instructions. […]
(§3) Capture beads (BIO-PLEX Phospho-Stat3 Assay, BIO-RAD Laboratories) were combined with 50 μL of 1:1 diluted lysates and added to a 96-well filter plate according to manufacture's instructions (BIO-PLEX Phosphoprotein Detection Kit, BIO-RAD Laboratories). […] After the final wash, beads were resuspended in 125 μL/well of bead suspension buffer, shaken for 30 seconds, and read on an array reader (BIO-PLEX, BIO-RAD Laboratories) according to the manufacture's instructions. Data were analyzed using analytical software (BIO-PLEX MANAGER 3.0, BIO-RAD Laboratories). […]

[2] = tested on: total human PBMCs; assay: IL-27 EC90 determination, phosphorylated STAT3 in total human PBMCs; type: cell-based; conditions: read-out: EC90 concentration
From the text: as §1, §2, §3

- EC90 [1]: 2 nM
Substance: huIL-27: Human IL-27 (R&D Systems)
- EC90 [2]: 2 nM
